For 14 compounds, DC50 and Dmax results are on record in patent US12448389B2, “BRM targeting compounds and associated methods of use” (Prelude Therapeutics Incorporated, priority 2020, dated 2025).

One experiment deals with T1, SMARCA4-HiBiT (Homo sapiens, UniProt P51532).
T1 construct: SMARCA4-HiBiT knock-in Hela monoclonal cell (CS3023226); host or cells: HeLa monoclonal knock-in line (CRISPR HiBiT knock-in at the endogenous locus, heterozygous)
Kind of experiment: SMARCA4 HiBiT degradation assay in HeLa cells. The format is cell-based. The settings on record: 18 hours incubation; for DC50: read-out: HeLa-HiBit-SM4 DC50; for Dmax: HeLa, read-out: HeLa-HiBit-SM4 Dmax (%). The essentials: (§1)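 HeLa monoclonal lines with heterozygous HiBiT knock-in were seeded at 2500 cells/well in EMEM with 10% FBS and treated with compound for 18 h at 37 °C. Remaining tagged protein was measured by Nano-Glo HiBiT lytic luminescence after 30–60 min at RT, and values came from curve fitting.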
(HiBiT is a short tag that completes a luciferase, so light tracks the accessible tagged protein.)

A further experiment addresses T2, SMARCA2-HiBiT (Homo sapiens, UniProt P51531).
T2 construct: SMARCA2-HiBiT knock-in Hela monoclonal cell (CS302366); host or cells: HeLa monoclonal knock-in line (CRISPR HiBiT knock-in at the endogenous locus, heterozygous)
Kind of experiment: SMARCA2 HiBiT degradation assay in HeLa cells. The format is cell-based. The settings on record: 18 hours incubation; for DC50: read-out: HeLa_HiBit-SM2 DC50; for Dmax: HeLa, read-out: HeLa-HiBit-SM2 Dmax (%). The essentials: as §1

Structures are written as SMILES. Where only a bound is given, the exact number is not on record here.

T1 sequence (P51532 whole entry): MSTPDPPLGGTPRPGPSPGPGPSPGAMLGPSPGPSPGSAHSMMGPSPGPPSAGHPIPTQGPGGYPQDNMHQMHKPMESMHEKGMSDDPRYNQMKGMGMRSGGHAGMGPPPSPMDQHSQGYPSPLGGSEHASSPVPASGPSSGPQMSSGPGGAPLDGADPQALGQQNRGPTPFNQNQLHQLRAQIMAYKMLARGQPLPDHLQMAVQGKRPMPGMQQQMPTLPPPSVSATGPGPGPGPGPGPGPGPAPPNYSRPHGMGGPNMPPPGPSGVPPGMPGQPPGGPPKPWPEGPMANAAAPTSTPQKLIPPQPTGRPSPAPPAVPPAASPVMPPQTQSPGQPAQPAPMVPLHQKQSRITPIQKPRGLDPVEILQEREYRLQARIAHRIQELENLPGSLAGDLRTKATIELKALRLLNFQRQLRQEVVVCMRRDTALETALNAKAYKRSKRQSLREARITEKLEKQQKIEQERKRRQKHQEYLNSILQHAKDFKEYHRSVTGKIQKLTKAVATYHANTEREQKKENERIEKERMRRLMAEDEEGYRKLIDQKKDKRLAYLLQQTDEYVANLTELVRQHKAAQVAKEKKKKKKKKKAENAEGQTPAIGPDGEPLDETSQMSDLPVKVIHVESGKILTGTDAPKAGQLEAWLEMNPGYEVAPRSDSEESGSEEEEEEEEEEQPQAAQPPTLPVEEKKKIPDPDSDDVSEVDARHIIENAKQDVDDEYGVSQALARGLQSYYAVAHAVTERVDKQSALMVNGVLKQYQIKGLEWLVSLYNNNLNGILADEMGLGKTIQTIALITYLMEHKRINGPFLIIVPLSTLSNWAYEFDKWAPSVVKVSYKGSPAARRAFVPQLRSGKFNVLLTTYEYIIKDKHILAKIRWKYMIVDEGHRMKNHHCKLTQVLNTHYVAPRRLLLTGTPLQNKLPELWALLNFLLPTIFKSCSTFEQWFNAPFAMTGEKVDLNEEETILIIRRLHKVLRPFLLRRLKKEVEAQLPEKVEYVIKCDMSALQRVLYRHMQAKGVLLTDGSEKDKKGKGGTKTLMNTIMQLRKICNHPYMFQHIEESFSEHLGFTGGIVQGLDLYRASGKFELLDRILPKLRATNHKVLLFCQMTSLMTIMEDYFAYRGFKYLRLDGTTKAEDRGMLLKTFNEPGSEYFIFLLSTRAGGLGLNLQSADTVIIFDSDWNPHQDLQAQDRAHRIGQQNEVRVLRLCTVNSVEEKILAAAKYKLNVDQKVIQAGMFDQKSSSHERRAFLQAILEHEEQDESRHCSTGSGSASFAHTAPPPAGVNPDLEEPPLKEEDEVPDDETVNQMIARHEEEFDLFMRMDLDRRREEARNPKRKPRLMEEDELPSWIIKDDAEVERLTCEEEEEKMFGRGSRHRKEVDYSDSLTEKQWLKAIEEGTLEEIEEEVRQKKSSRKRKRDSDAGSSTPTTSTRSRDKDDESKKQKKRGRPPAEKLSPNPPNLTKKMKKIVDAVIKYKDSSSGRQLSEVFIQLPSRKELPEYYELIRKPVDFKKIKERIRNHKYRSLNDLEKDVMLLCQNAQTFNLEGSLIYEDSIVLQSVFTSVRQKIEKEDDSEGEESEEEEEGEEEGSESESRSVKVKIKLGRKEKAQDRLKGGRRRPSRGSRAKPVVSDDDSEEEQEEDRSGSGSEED
T2 sequence (P51531 whole entry): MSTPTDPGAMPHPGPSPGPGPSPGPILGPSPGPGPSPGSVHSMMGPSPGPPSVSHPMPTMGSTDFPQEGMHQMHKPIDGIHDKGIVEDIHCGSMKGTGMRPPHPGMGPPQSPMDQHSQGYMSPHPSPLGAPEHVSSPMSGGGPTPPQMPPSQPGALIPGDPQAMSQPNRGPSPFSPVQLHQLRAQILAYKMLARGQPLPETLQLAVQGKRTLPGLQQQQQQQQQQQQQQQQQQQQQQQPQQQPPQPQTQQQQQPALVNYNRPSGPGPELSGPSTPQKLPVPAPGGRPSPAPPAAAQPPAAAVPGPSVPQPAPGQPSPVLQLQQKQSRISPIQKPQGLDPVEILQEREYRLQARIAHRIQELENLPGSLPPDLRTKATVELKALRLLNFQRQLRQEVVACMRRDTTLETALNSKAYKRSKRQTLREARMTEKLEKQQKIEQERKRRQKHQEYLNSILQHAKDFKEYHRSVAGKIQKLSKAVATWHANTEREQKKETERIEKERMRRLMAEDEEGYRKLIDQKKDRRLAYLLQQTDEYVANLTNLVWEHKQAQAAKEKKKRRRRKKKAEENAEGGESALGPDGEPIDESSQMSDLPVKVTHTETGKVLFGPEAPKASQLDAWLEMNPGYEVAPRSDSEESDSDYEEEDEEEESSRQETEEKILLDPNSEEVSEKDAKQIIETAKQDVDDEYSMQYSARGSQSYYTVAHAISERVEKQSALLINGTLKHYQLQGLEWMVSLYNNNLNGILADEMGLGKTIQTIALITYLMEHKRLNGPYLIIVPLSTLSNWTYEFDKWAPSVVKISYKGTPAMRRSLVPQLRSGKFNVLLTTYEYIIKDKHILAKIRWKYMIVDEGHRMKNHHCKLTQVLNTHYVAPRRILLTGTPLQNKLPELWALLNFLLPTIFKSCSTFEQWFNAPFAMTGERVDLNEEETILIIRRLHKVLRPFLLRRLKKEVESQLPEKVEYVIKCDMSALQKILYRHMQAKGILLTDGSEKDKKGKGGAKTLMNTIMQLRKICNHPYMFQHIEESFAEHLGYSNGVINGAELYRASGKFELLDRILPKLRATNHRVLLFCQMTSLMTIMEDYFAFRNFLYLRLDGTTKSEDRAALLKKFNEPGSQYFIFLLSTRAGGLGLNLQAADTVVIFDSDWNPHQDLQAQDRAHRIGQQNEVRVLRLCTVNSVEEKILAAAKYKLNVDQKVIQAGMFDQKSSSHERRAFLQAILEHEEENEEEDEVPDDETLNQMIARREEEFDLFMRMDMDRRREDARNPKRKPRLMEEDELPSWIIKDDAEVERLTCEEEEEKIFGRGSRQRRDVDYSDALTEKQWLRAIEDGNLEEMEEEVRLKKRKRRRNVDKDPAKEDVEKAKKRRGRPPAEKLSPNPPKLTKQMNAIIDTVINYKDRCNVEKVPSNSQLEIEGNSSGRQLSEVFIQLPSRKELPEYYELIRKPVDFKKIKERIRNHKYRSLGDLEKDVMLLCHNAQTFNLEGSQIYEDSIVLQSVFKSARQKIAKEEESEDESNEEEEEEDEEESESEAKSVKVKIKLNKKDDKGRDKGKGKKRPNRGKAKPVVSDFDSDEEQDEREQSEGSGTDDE

On to `O=C1CCC(N2C(=O)c3ccc(N4CCC(CNC56CC(CN7CCN8c9cc(-c%10ccccc%10O)nnc9NC[C@H]8C7)(C5)C6)CC4)cc3C2=O)C(=O)N1` (stereo partly drawn) [Example 134, 2-(2,6-dioxopiperidin-3-yl)-5-(4-(((3-(((S)-2-(2-hydroxyphenyl)-5,6,6a,7,9,10-hexahydro-8H-pyrazino[1′,2′:4,5]pyrazino[2,3-c]pyridazin-8-yl)methyl)bicyclo[1.1.1]pentan-1-yl)amino)methyl)piperidin-1-yl)isoindoline-1,3-dione], for which, at SMARCA4-HiBiT, the DC50 (commonly the midpoint of the concentration-degradation curve) was under 10 nM and the Dmax (usually the greatest extent of degradation seen) lay in the range of 50 to 75%. Besides, on SMARCA2-HiBiT, the DC50 is under 10 nM and the Dmax fell in the range of 75 to 85%.
On to `O=C1CCC(N2C(=O)c3ccc(OC4CCN(CC5CCN(CCN6CCN7c8cc(-c9ccccc9O)nnc8NC[C@H]7C6)CC5)CC4)cc3C2=O)C(=O)N1` (stereo partly drawn) [Example 216, 2-(2,6-dioxopiperidin-3-yl)-5-((1-((1-(2-((S)-2-(2-hydroxyphenyl)-5,6,6a,7,9,10-hexahydro-8H-pyrazino[1′,2′:4,5]pyrazino[2,3-c]pyridazin-8-yl)ethyl)piperidin-4-yl)methyl)piperidin-4-yl)oxy) isoindoline-N, 3-dione], for which, at SMARCA4-HiBiT, the DC50 was under 10 nM and the Dmax was 50 to 75%. In addition, on SMARCA2-HiBiT, the DC50 was under 10 nM and the Dmax is over 85%.
Consider `O=C1CCC(N2C(=O)c3ccc(N4CCC(CN5CC(CN6CCN7c8cc(-c9ccccc9O)nnc8NC[C@H]7C6)C5)CC4)cc3C2=O)C(=O)N1` (stereo partly drawn) [Example 36, 2-(2,6-dioxopiperidin-3-yl)-5-(4-((3-(((S)-2-(2-hydroxyphenyl)-5,6,6a,7,9,10-hexahydro-8H-pyrazino[1′,2′:4,5]pyrazino[2,3-c]pyridazin-8-yl)methyl)azetidin-1-yl)methyl)piperidin-1-yl)isoindoline-1,3-dione], for which the DC50 on SMARCA4-HiBiT and on SMARCA2-HiBiT was under 10 nM each time. Besides, the Dmax at SMARCA4-HiBiT is 75 to 85%; at SMARCA2-HiBiT, over 85%.
Turning to `O=C1CCC(N2C(=O)c3cc(F)c(N4CCC(CN5CCC(CN6CCN7c8cc(-c9ccccc9O)nnc8NC[C@H]7C6)CC5)CC4)cc3C2=O)C(=O)N1` (stereo partly drawn) [Example 164, 2-(2,6-dioxopiperidin-3-yl)-5-fluoro-6-[4-[[4-[[(10S)-4-(2-hydroxyphenyl)-1,5,6,8,12-pentazatricyclo[8.4.0.02,7]tetradeca-2,4,6-trien-12-yl]methyl]piperidin-1-yl]methyl]piperidin-1-yl]isoindole-1,3-dione], the DC50 at SMARCA4-HiBiT and at SMARCA2-HiBiT was under 10 nM each time. Moreover, the Dmax on SMARCA4-HiBiT was 75 to 85%; on SMARCA2-HiBiT, over 85%.
`O=C1CCC(N2C(=O)c3ccc(N4CCC(CN5CCC(CN6CCN7c8cc(-c9ccccc9O)nnc8NC[C@H]7C6)CC5)CC4)cc3C2=O)C(=O)N1COP(=O)(O)O` (stereo partly drawn) [Example 129, (3-(5-(4-((4-(((S)-2-(2-hydroxyphenyl)-5,6,6a,7,9,10-hexahydro-8H-pyrazino[1′,2′:4,5]pyrazino[2,3-c]pyridazin-8-yl)methyl)piperidin-1-yl)methyl)piperidin-1-yl)-1,3-dioxoisoindolin-2-yl)-2,6-dioxopiperidin-1-yl)methyl) dihydrogen phosphate]: the DC50 at SMARCA4-HiBiT and at SMARCA2-HiBiT was under 10 nM throughout. Moreover, the Dmax on SMARCA4-HiBiT and on SMARCA2-HiBiT was over 85% throughout.
Consider `O=C1CCC(N2C(=O)c3ccc(N4CCC5(CC4)CC(N4C[C@@H]6[C@@H](CN7CCN8c9cc(-c%10ccccc%10O)nnc9NC[C@H]8C7)[C@@H]6C4)C5)cc3C2=O)C(=O)N1` (stereo partly drawn) [Example 93, 2-(2,6-dioxopiperidin-3-yl)-5-(2-((1R,5S,6s)-6-(((S)-2-(2-hydroxyphenyl)-5,6,6a,7,9,10-hexahydro-8H-pyrazino[1′,2′:4,5]pyrazino[2,3-c]pyridazin-8-yl)methyl)-3-azabicyclo[3.1.0]hexan-3-yl)-7-azaspiro[3.5]nonan-7-yl)isoindoline-1,3-dione], for which, at SMARCA4-HiBiT, the DC50 is under 10 nM and the Dmax is over 85%. Also, on SMARCA2-HiBiT, the DC50 is under 10 nM and the Dmax was over 85%.
As for `O=C1CCC(N2Cc3cc(N4CCO[C@@H](CN5C[C@@H]6[C@H](C5)[C@H]6CN5CCN6c7cc(-c8ccccc8O)nnc7NC[C@H]6C5)C4)ccc3C2=O)C(=O)N1` (stereo partly drawn) [Example 267, 3-(5-((S)-2-(((1R,5S,6R)-6-(((S)-2-(2-hydroxyphenyl)-5,6,6a,7,9,10-hexahydro-8H-pyrazino[1′,2′:4,5]pyrazino[2,3-c]pyridazin-8-yl)methyl)-3-azabicyclo[3.1.0]hexan-3-yl)methyl)morpholino)-1-oxoisoindolin-2-yl)piperidine-2,6-dione], at SMARCA4-HiBiT, the DC50 is under 10 nM and the maximal degradation (Dmax) fell in the range of 75 to 85%. At SMARCA2-HiBiT, the DC50 is under 10 nM and the Dmax is over 85%.
Turning to `O=C1CCC(N2Cc3cc(N4CCC(CNC56CCC(C(=O)N7CCN8c9cc(-c%10ccccc%10O)nnc9NC[C@H]8C7)(CC5)CC6)CC4)ccc3C2=O)C(=O)N1` (stereo partly drawn) [Example 84, 3-(5-(4-(((4-((S)-2-(2-hydroxyphenyl)-6,6a,7,8,9,10-hexahydro-5H-pyrazino[1 ′,2′:4,5]pyrazino[2,3-c]pyridazine-8-carbonyl)bicyclo[2.2.2]octan-1-yl)amino)methyl)piperidin-1-yl)-1-oxoisoindolin-2-yl)piperidine-2,6-dione], on SMARCA4-HiBiT, the DC50 was under 10 nM and the Dmax lay in the range of 75 to 85%. Also, on SMARCA2-HiBiT, the DC50 is under 10 nM and the Dmax is over 85%.
`C[C@H]1CN2c3cc(-c4ccccc4O)nnc3NC[C@H]2CN1C[C@H]1[C@@H]2CN(CC3CCN(c4ccc5c(c4)C(=O)N(C4CCC(=O)NC4=O)C5=O)C[C@@H]3F)C[C@@H]21` (stereo in doubt) [Example 199, 2-(2,6-dioxopiperidin-3-yl)-5-[(3R,4R)-3-fluoro-4-[[(1S,5R)-6-[[(10S,13S)-4-(2-hydroxyphenyl)-13-methyl-1,5,6,8,12-pentazatricyclo [8.4.0.02,7]tetradeca-2(7),3,5-trien-12-yl]methyl]-3-azabicyclo [3.1.0]hexan-3-yl]methyl]piperidin-1-yl]isoindole-1,3-dione]: at SMARCA4-HiBiT, the DC50 was under 10 nM and the Dmax was in the range of 50 to 75%. Further, on SMARCA2-HiBiT, the DC50 was under 10 nM and the Dmax was over 85%.
For the compound `O=C1CCC(N2C(=O)c3ccc(N4CCC(CN5C[C@@H]6[C@H](C5)[C@H]6CN5CCN6c7cc(-c8ccccc8O)nnc7NC[C@H]6C5)[C@@H](F)C4)cc3C2=O)C(=O)N1` (stereo in doubt) [Example 192, 2-(2,6-dioxopiperidin-3-yl)-5-[(3R,4R)-3-fluoro-4-[[(1S,5R)-6-[[(10S)-4-(2-hydroxyphenyl)-1,5,6,8,12-pentazatricyclo[8.4.0.02,7]tetradeca-2(7),3,5-trien-12-yl]methyl]-3-azabicyclo[3.1.0]hexan-3-yl]methyl]piperidin-1-yl]isoindole-1,3-dione], on SMARCA4-HiBiT, the DC50 is under 10 nM and the Dmax is at most 50%. Further, at SMARCA2-HiBiT, the DC50 was under 10 nM and the Dmax was in the range of 50 to 75%.
Regarding `O=C1CCC(N2Cc3ccc(N4CC(CN5CCC(CN6CCN7c8cc(-c9ccccc9O)nnc8NC[C@H]7C6)CC5)C4)cc3C2=O)C(=O)N1` (stereo partly drawn) [Example 276, 3-(6-(3-((4-(((S)-2-(2-hydroxyphenyl)-5,6,6a,7,9,10-hexahydro-8H-pyrazino[1′,2′:4,5]pyrazino[2,3-c]pyridazin-8-yl)methyl)piperidin-1-yl)methyl)azetidin-1-yl)-1-oxoisoindolin-2-yl) piperidine-2,6-dione], the DC50 at SMARCA4-HiBiT and on SMARCA2-HiBiT was under 10 nM each time. Moreover, the Dmax at SMARCA4-HiBiT and at SMARCA2-HiBiT was over 85% in each case.
Regarding `O=C1CCC(N2C(=O)c3ccc(N4CCO[C@H](CN5C[C@@H]6[C@H](C5)[C@H]6CN5CCN6c7cc(-c8ccccc8O)nnc7NC[C@H]6C5)C4)cc3C2=O)C(=O)N1` (stereo partly drawn) [Example 52, 2-(2,6-dioxopiperidin-3-yl)-5-((R)-2-(((1R,5S,6S)-6-(((S)-2-(2-hydroxyphenyl)-5,6,6a,7,9,10-hexahydro-8H-pyrazino[1′,2′:4,5]pyrazino[2,3-c]pyridazin-8-yl)methyl)-3-azabicyclo[3.1.0]hexan-3-yl)methyl)morpholino)isoindoline-1,3-dione], the DC50 on SMARCA4-HiBiT and on SMARCA2-HiBiT was under 10 nM each time. The Dmax was 75 to 85% at SMARCA4-HiBiT and over 85% on SMARCA2-HiBiT.
Turning to `C[C@@H]1C[C@H](CN2CCC(CN3CCN4c5cc(-c6ccccc6O)nnc5NC[C@H]4C3)CC2)CCN1c1ccc2c(c1)C(=O)N(C1CCC(=O)NC1=O)C2=O` (stereo partly drawn) [Example 184, 2-(2,6-dioxopiperidin-3-yl)-5-[(2R,4R)-4-[[4-[[(10S)-4-(2-hydroxyphenyl)-1,5,6,8,12-pentazatricyclo[8.4.0.02,7]tetradeca-2,4,6-trien-12-yl]methyl]piperidin-1-yl]methyl]-2-methylpiperidin-1-yl]isoindole-1,3-dione], the DC50 on SMARCA4-HiBiT and on SMARCA2-HiBiT was under 10 nM each time. In addition, the Dmax on SMARCA4-HiBiT and at SMARCA2-HiBiT was over 85% throughout.
On to `CC(C)(C)C(=O)OCN1C(=O)CCC(N2C(=O)c3ccc(N4CCC(CN5CCC(CN6CCN7c8cc(-c9ccccc9O)nnc8NC[C@H]7C6)CC5)CC4)cc3C2=O)C1=O` (stereo partly drawn) [Example 34, (3-(5-(4-((4-(((S)-2-(2-hydroxyphenyl)-5,6,6a,7,9,10-hexahydro-8H-pyrazino [1′,2′:4,5]pyrazino[2,3-c]pyridazin-8-yl)methyl)piperidin-1-yl)methyl)piperidin-1-yl)-1,3-dioxoisoindolin-2-yl)-2,6-dioxopiperidin-1-yl)methyl pivalate], for which, at SMARCA4-HiBiT, the DC50 was under 10 nM and the Dmax was over 85%. For the same compound, on SMARCA2-HiBiT, the DC50 was under 10 nM and the Dmax is over 85%.
